Source: ChEMBL document CHEMBL5325431, “Synthesis of thieno[3,2-e]pyrrolo[1,2-a]pyrimidine derivatives and their precursors containing 2-aminothiophenes fragments as anticancer agents for therapy of pulmonary metastatic melanoma” (Eur J Med Chem, 2023)

Tests used:
B16-F10 [1] = assay: Cytotoxicity against mouse B16-F10 cells assessed as reduction in cell viability at 5.5 uM incubated for 24 hrs by alamarblue staining based assay relative to control; assay type: functional
B16-F10 [2] = assay: Cytotoxicity against mouse B16-F10 cells assessed as reduction in cell viability at 0.2 to 1.5 uM incubated for 24 hrs by alamarblue staining based assay relative to control; assay type: functional; conditions: dose 0.2-1.5 µM
B16-F10 [3] = assay: Induction of apoptosis in mouse B16-F10 cells assessed as viable cells at 20 uM measured after 48 hrs by Annexin V-FITC/7-AAD staining based flow cytometric analysis relative to control; assay type: functional; conditions: read-out: Activity
B16-F10 [4] = assay: Induction of apoptosis in mouse B16-F10 cells assessed as late apoptotic cells at 20 uM measured after 48 hrs by Annexin V-FITC/7-AAD staining based flow cytometric analysis relative to control; assay type: functional
4T1 = assay: Cytotoxicity against mouse 4T1 cells assessed as cell survival incubated for 24 hrs by alamarblue staining based analysis; assay type: functional; conditions: 4T1, 24 h
[5] = Toxicity in C57BL/6 mouse assessed as change in body temperature at 37 mg/kg, ip measured for 22 days; assay type: organism-based; conditions: in vivo, 528 h, time 22 day
B16-F10 [6] = assay: Antitumor activity against metastatic mouse B16-F10 cells implanted in C57BL/6 mouse assessed as number of lung metastases at 9 to 9.5 mg/kg, ip administered for 22 days by histological analysis (reference value: 223 +/- 12); assay type: functional; conditions: dose 9-9.5 mg/kg, time 22 day
[7] = Toxicity in C57BL/6 mouse implanted with mouse B16-F10 cells assessed as liver damage at 4.6 to 42 mg/kg, ip by H and E staining based analysis; assay type: organism-based; conditions: in vivo, dose 4.6-42 mg/kg
[8] = Toxicity in C57BL/6 mouse implanted with mouse B16-F10 cells assessed as liver damage at 9 to 9.5 mg/kg, ip by H and E staining based analysis; assay type: organism-based; conditions: in vivo, dose 9-9.5 mg/kg
[9] = Toxicity in C57BL/6 mouse implanted with mouse B16-F10 cells assessed as heart damage at 9 to 9.5 mg/kg, ip by H and E staining based analysis; assay type: organism-based; conditions: in vivo, dose 9-9.5 mg/kg
B16-F10 [10] = assay: Cytotoxicity against mouse B16-F10 cells assessed as reduction in cell viability at 8.3 uM incubated for 24 hrs by alamarblue staining based assay relative to control; assay type: functional
B16-F10 [11] = assay: Cytotoxicity against mouse B16-F10 cells assessed as reduction in cell viability at 1.5 uM incubated for 24 hrs by alamarblue staining based assay relative to control; assay type: functional
B16-F10 [12] = assay: Cytotoxicity against mouse B16-F10 cells assessed as reduction in cell viability at 8.31 uM incubated for 24 hrs by alamarblue staining based assay relative to control; assay type: functional

| SMILES | Activity (B16-F10 [1]) | Activity (B16-F10 [2]) | viability at 20 µM (B16-F10 [3]) | Activity (B16-F10 [4]) | IC50 (4T1) | Activity [5] | Activity (B16-F10 [6]) | Activity [7] | Activity [8] | Activity [9] | Activity (B16-F10 [10]) | Activity (B16-F10 [11]) | Activity (B16-F10 [12]) |
| --- | --- | --- | --- | --- | --- | --- | --- | --- | --- | --- | --- | --- | --- |
| COc1ccc(C(=O)/C=C2\C(=O)C(C#N)=C3NC(=O)c4c(sc5c4CCCCC5)N32)cc1 | 20% | 90% | 0.2% | 92% | 8.8 µM | Non-Toxic | 75 | Non-Toxic | Non-Toxic | Non-Toxic |  |  |  |
| CCOC(=O)c1c(N2C(N)=C(C#N)C(=O)/C2=C\C(=O)c2ccc(C)cc2)sc2c1CCCCC2 | 20% | 40% | 0.2% | 96.5% | 6.5 µM | Non-Toxic | 40 | Non-Toxic | Non-Toxic | Non-Toxic | 48% |  |  |
| CCOC(=O)c1c(NC(=C\C(=O)c2ccc(OC)cc2)/C([O-])=C(\C#N)C(N)=O)sc2c1CCCC2.[K+] |  |  | 0.3% | 95.1% | 3.8 µM | Non-Toxic | 21 | Non-Toxic | Non-Toxic | Non-Toxic |  | ~80% | 20% |
